Measurements taken from patent US9695103B2 (priority 2014, dated 2017).
Several values for one entry are separate records, joined by “and”; a condition that tells them apart may be missing. Equal entries are not always repeated.

Key:
daphnias = assay: Biocidal activity against crustaceans (daphnias), FR. 1.39.2007,03223 procedure; settings: test time 96 h; for Number of survived daphnias (the average over parallel set of samples), Test sample: control sample 10
fungal spores = assay: Fungicidal activity according to GOST 30028.4-2006, resistance of treated materials to fungal spores; type: cell-based; settings: additive content 5 % wt.
S. aureus No. 1257 = assay: Bactericidal activity: exposure of bacterial culture in salt solution, neutralization, inoculation on solid nutrient medium; type: cell-based; set-up: key: NG - no growth; CG - confluent growth
E. coli No. 906 = assay: as above; type: cell-based; set-up: key: NG - no growth; CG - confluent growth
[1] = tested on: E. coli No. 906, S. aureus No. 1257, clinical strain P. aeruginosa; assay: Bactericidal activity, summary statement over investigated strains; type: cell-based; settings: concentration of 2.0%, time of exposure from 30 min
[2] = tested on: clinical strain P. aeruginosa; assay: Bactericidal activity: exposure of bacterial culture in salt solution, neutralization, inoculation on solid nutrient medium; type: cell-based; set-up: key: NG - no growth; CG - confluent growth
[3] = 0.00001 % wt. in aqueous medium
[4] = Paper impregnated with latex SKS 65 GP

`C=CC(=O)[O-].O=C([O-])c1ccccc1.[Cu+2]` [Copper acrylate-benzoate, reference compound] was tested, and the “Daphnia death rate in test sample, % of control sample” value (“Daphnia death rate in test sample, %” below) (daphnias; [3]) was 0 % of control sample, the “Number of survived daphnias (the average over parallel set of samples), Test sample” value (daphnias; [3]) was 10 and the “Daphnia death rate in test sample, %” value (daphnias; 0.0001 % wt. in aqueous medium) was 0 % of control sample. For the same molecule, the “Number of survived daphnias (the average over parallel set of samples), Test sample” value (daphnias; 0.0001 % wt. in aqueous medium) was 10, the “Daphnia death rate in test sample, %” value (daphnias; 0.001 % wt. in aqueous medium) was 0 % of control sample and the “Number of survived daphnias (the average over parallel set of samples), Test sample” value (daphnias; 0.001 % wt. in aqueous medium) was 10. For the same molecule, the “Daphnia death rate in test sample, %” value (daphnias; 0.01 % wt. in aqueous medium) was 0 % of control sample, the “Number of survived daphnias (the average over parallel set of samples), Test sample” value (daphnias; 0.01 % wt. in aqueous medium) was 10 and the “Daphnia death rate in test sample, %” value (daphnias; 0.1 % wt. in aqueous medium) was 10 % of control sample. For the same molecule, the “Number of survived daphnias (the average over parallel set of samples), Test sample” value (daphnias; 0.1 % wt. in aqueous medium) was 9, the “Daphnia death rate in test sample, %” value (daphnias; 1 % wt. in aqueous medium) was 20 % of control sample and the “Number of survived daphnias (the average over parallel set of samples), Test sample” value (daphnias; 1 % wt. in aqueous medium) was 8.

With `C=CC(=O)[O][Cu][O]C(=O)C(O)C(O)C(=O)O` (centres unmarked) [Copper acrylate-tartrate] the Tolerance time (fungal spores; [4]) was 16 days, the Tolerance time (fungal spores; Polyvinyl chloride emulsion) was 17 days and the “Bactericidal activity, growth of S. aureus 1257” value (S. aureus No. 1257; 1.5 % wt., exposure 60 min) was “NG”. The “Bactericidal activity, growth of S. aureus 1257” value (S. aureus No. 1257; 2.0 % wt., exposure 5 min) was “NG”, the “Bactericidal activity, growth of S. aureus 1257” value (S. aureus No. 1257; 2.0 % wt., exposure 15 min) was “NG” and the “Bactericidal activity, growth of S. aureus 1257” value (S. aureus No. 1257; 2.0 % wt., exposure 30 min) was “NG”. The “Bactericidal activity, growth of S. aureus 1257” value (S. aureus No. 1257; 2.0 % wt., exposure 60 min) was “NG”, the “Bactericidal activity, growth of S. aureus 1257” value (S. aureus No. 1257; 3.0 % wt., exposure 5 min) was “NG” and the “Bactericidal activity, growth of S. aureus 1257” value (S. aureus No. 1257; 3.0 % wt., exposure 15 min) was “NG”. The “Bactericidal activity, growth of S. aureus 1257” value (S. aureus No. 1257; 3.0 % wt., exposure 30 min) was “NG”, the “Bactericidal activity, growth of E. coli 906” value (E. coli No. 906; 1.5 % wt., exposure 60 min) was “NG” and the “Bactericidal activity, growth of E. coli 906” value (E. coli No. 906; 2.0 % wt., exposure 5 min) was “NG”. For the same molecule, the “Bactericidal activity, growth of E. coli 906” value (E. coli No. 906; 2.0 % wt., exposure 15 min) was “NG”, the “Bactericidal activity, growth of E. coli 906” value (E. coli No. 906; 2.0 % wt., exposure 30 min) was “NG” and the “Bactericidal activity, growth of E. coli 906” value (E. coli No. 906; 2.0 % wt., exposure 60 min) was “NG”. The “Bactericidal activity, growth of E. coli 906” value (E. coli No. 906; 3.0 % wt., exposure 5 min) was “NG”, the “Bactericidal activity, growth of E. coli 906” value (E. coli No. 906; 3.0 % wt., exposure 15 min) was “NG” and the “Bactericidal activity, growth of E. coli 906” value (E. coli No. 906; 3.0 % wt., exposure 30 min) was “NG”. The “bactericidal effect against investigated strains” value (“bactericidal effect” below) [1] was “stable bactericidal effect”, the “Bactericidal activity, growth of P. aeruginosa” value ([2]; 1.5 % wt., exposure 30 min) was “CG” and the “Bactericidal activity, growth of P. aeruginosa” value ([2]; 1.5 % wt., exposure 60 min) was “CG”. The “Bactericidal activity, growth of P. aeruginosa” value ([2]; 2.0 % wt., exposure 5 min) was “CG”, the “Bactericidal activity, growth of P. aeruginosa” value ([2]; 2.0 % wt., exposure 15 min) was greater than 300 CFU and the “Bactericidal activity, growth of P. aeruginosa” value ([2]; 2.0 % wt., exposure 60 min) was “NG”. The “Bactericidal activity, growth of P. aeruginosa” value ([2]; 3.0 % wt., exposure 5 min) was “NG”, the “Bactericidal activity, growth of P. aeruginosa” value ([2]; 3.0 % wt., exposure 15 min) was “NG” and the “Bactericidal activity, growth of P. aeruginosa” value ([2]; 3.0 % wt., exposure 30 min) was “NG”.

Molecule `C=CC(=O)[O][Zn][O]C(=O)C(O)(CC(=O)O)CC(=O)O` [Zinc acrylate-citrate] has a Tolerance time (fungal spores; Polyvinyl chloride emulsion) of 17 days.

`C=CC(=O)[O-].CC(O)C(=O)[O-].[Zn+2]` (centres unmarked) [Zinc acrylate-lactate] was tested, and the “Daphnia death rate in test sample, %” value (daphnias; 0.0001 % wt. in aqueous medium) was 90 % of control sample, the “Number of survived daphnias (the average over parallel set of samples), Test sample” value (daphnias; 0.0001 % wt. in aqueous medium) was 1 and the “Daphnia death rate in test sample, %” value (daphnias; 0.001 % wt. in aqueous medium) was 100 % of control sample and 70 % of control sample. For the same molecule, the “Daphnia death rate in test sample, %” value (daphnias; 0.01 % wt. in aqueous medium) was 100 % of control sample, the “Number of survived daphnias (the average over parallel set of samples), Test sample” value (daphnias; 0.01 % wt. in aqueous medium) was 0 and the “Daphnia death rate in test sample, %” value (daphnias; 0.1 % wt. in aqueous medium) was 100 % of control sample. The “Number of survived daphnias (the average over parallel set of samples), Test sample” value (daphnias; 0.1 % wt. in aqueous medium) was 0, the “Daphnia death rate in test sample, %” value (daphnias; 1 % wt. in aqueous medium) was 100 % of control sample and the “Number of survived daphnias (the average over parallel set of samples), Test sample” value (daphnias; 1 % wt. in aqueous medium) was 0.

In the case of `C=CC(=O)[O][Zn][O]C(=O)CC(=O)O` [Zinc acrylate-malonate], the Tolerance time (fungal spores; [4]) is reported as 20 days, the Tolerance time (fungal spores; Polyvinyl chloride emulsion) is reported as 18 days and the “Bactericidal activity, growth of S. aureus 1257” value (S. aureus No. 1257; 1.5 % wt., exposure 5 min) is reported as greater than 300 CFU. For the same molecule, the “Bactericidal activity, growth of S. aureus 1257” value (S. aureus No. 1257; 1.5 % wt., exposure 15 min) was 85 CFU, the “Bactericidal activity, growth of S. aureus 1257” value (S. aureus No. 1257; 1.5 % wt., exposure 30 min) was 35 CFU and 43 CFU and the “Bactericidal activity, growth of S. aureus 1257” value (S. aureus No. 1257; 2.0 % wt., exposure 5 min) was “NG”. For the same molecule, the “Bactericidal activity, growth of S. aureus 1257” value (S. aureus No. 1257; 2.0 % wt., exposure 15 min) was “NG”, the “Bactericidal activity, growth of S. aureus 1257” value (S. aureus No. 1257; 2.0 % wt., exposure 30 min) was “NG” and the “Bactericidal activity, growth of S. aureus 1257” value (S. aureus No. 1257; 2.0 % wt., exposure 60 min) was “NG”. The “Bactericidal activity, growth of E. coli 906” value (E. coli No. 906; 1.5 % wt., exposure 5 min) was greater than 300 CFU, the “Bactericidal activity, growth of E. coli 906” value (E. coli No. 906; 1.5 % wt., exposure 15 min) was 78 CFU and the “Bactericidal activity, growth of E. coli 906” value (E. coli No. 906; 1.5 % wt., exposure 30 min) was 45 CFU and 53 CFU. The “Bactericidal activity, growth of E. coli 906” value (E. coli No. 906; 1.5 % wt., exposure 60 min) was 5 CFU and 4 CFU, the “Bactericidal activity, growth of E. coli 906” value (E. coli No. 906; 2.0 % wt., exposure 5 min) was 1 CFU and the “Bactericidal activity, growth of E. coli 906” value (E. coli No. 906; 2.0 % wt., exposure 15 min) was “NG”. The “Bactericidal activity, growth of E. coli 906” value (E. coli No. 906; 2.0 % wt., exposure 30 min) was “NG”, the “Bactericidal activity, growth of E. coli 906” value (E. coli No. 906; 2.0 % wt., exposure 60 min) was “NG” and the “bactericidal effect” value [1] was “stable bactericidal effect”.

`C=C(C)C(=O)O.O=C([O-])CC(O)C(=O)[O-].[Zn+2]` (centres unmarked) [Zinc methacrylate-malate] gave a Tolerance time (fungal spores; Polyvinyl chloride emulsion) of 9 days.

For copper methacrylate-glycolate, the Tolerance time (fungal spores; [4]) was 8 days, the Tolerance time (fungal spores; Paper impregnated with petrolatum base) was 8 days and the Tolerance time (fungal spores; Polyvinyl chloride emulsion) was 10 days. The “Number of survived daphnias (the average over parallel set of samples), Test sample” value (daphnias; [3]) was 1, the “Number of survived daphnias (the average over parallel set of samples), Test sample” value (daphnias; 0.0001 % wt. in aqueous medium) was 0 and the “Number of survived daphnias (the average over parallel set of samples), Test sample” value (daphnias; 0.001 % wt. in aqueous medium) was 0. For the same molecule, the “Number of survived daphnias (the average over parallel set of samples), Test sample” value (daphnias; 0.01 % wt. in aqueous medium) was 0, the “Number of survived daphnias (the average over parallel set of samples), Test sample” value (daphnias; 0.1 % wt. in aqueous medium) was 0 and the “Number of survived daphnias (the average over parallel set of samples), Test sample” value (daphnias; 1 % wt. in aqueous medium) was 0. For the same molecule, the “Bactericidal activity, growth of S. aureus 1257” value (S. aureus No. 1257; 1.5 % wt., exposure 30 min) was “CG”, the “Bactericidal activity, growth of S. aureus 1257” value (S. aureus No. 1257; 1.5 % wt., exposure 60 min) was greater than 300 CFU and the “Bactericidal activity, growth of S. aureus 1257” value (S. aureus No. 1257; 2.0 % wt., exposure 5 min) was “CG”. The “Bactericidal activity, growth of S. aureus 1257” value (S. aureus No. 1257; 2.0 % wt., exposure 15 min) was greater than 300 CFU, the “Bactericidal activity, growth of S. aureus 1257” value (S. aureus No. 1257; 2.0 % wt., exposure 30 min) was “NG” and the “Bactericidal activity, growth of S. aureus 1257” value (S. aureus No. 1257; 2.0 % wt., exposure 60 min) was “NG”. For the same molecule, the “Bactericidal activity, growth of S. aureus 1257” value (S. aureus No. 1257; 3.0 % wt., exposure 5 min) was “NG”, the “Bactericidal activity, growth of S. aureus 1257” value (S. aureus No. 1257; 3.0 % wt., exposure 15 min) was “NG” and the “Bactericidal activity, growth of S. aureus 1257” value (S. aureus No. 1257; 3.0 % wt., exposure 30 min) was “NG”. The “Bactericidal activity, growth of E. coli 906” value (E. coli No. 906; 1.5 % wt., exposure 30 min) was “CG”, the “Bactericidal activity, growth of E. coli 906” value (E. coli No. 906; 1.5 % wt., exposure 60 min) was greater than 300 CFU and the “Bactericidal activity, growth of E. coli 906” value (E. coli No. 906; 2.0 % wt., exposure 5 min) was “CG”. The “Bactericidal activity, growth of E. coli 906” value (E. coli No. 906; 2.0 % wt., exposure 15 min) was greater than 300 CFU, the “Bactericidal activity, growth of E. coli 906” value (E. coli No. 906; 2.0 % wt., exposure 30 min) was “NG” and the “Bactericidal activity, growth of E. coli 906” value (E. coli No. 906; 2.0 % wt., exposure 60 min) was “NG”. The “Bactericidal activity, growth of E. coli 906” value (E. coli No. 906; 3.0 % wt., exposure 5 min) was “NG”, the “Bactericidal activity, growth of E. coli 906” value (E. coli No. 906; 3.0 % wt., exposure 15 min) was “NG” and the “Bactericidal activity, growth of E. coli 906” value (E. coli No. 906; 3.0 % wt., exposure 30 min) was “NG”. The “bactericidal effect” value [1] was “stable bactericidal effect”, the “Bactericidal activity, growth of P. aeruginosa” value ([2]; 1.5 % wt., exposure 30 min) was “CG” and the “Bactericidal activity, growth of P. aeruginosa” value ([2]; 1.5 % wt., exposure 60 min) was “CG”. For the same molecule, the “Bactericidal activity, growth of P. aeruginosa” value ([2]; 2.0 % wt., exposure 5 min) was “CG”, the “Bactericidal activity, growth of P. aeruginosa” value ([2]; 2.0 % wt., exposure 15 min) was greater than 300 CFU and the “Bactericidal activity, growth of P. aeruginosa” value ([2]; 2.0 % wt., exposure 60 min) was “NG”. For the same molecule, the “Bactericidal activity, growth of P. aeruginosa” value ([2]; 3.0 % wt., exposure 5 min) was “NG”, the “Bactericidal activity, growth of P. aeruginosa” value ([2]; 3.0 % wt., exposure 15 min) was “NG” and the “Bactericidal activity, growth of P. aeruginosa” value ([2]; 3.0 % wt., exposure 30 min) was “NG”.
